From patent publication US11401279B2, “Pyrido[3,2-d]pyrimidine compounds as immunomodulators” (Incyte Corporation, priority 2019, dated 2022)

How the values were obtained:
[1] = system: U2OS/PD-L1 cells and Jurkat-PD-1-SHP cells; assay: Src homology region 2 domain-containing phosphatase (SHP) assay; format: cell-based; conditions: Homo sapiens, U2OS; PathHunter chemiluminescence, 2 hours
Protocol: U2OS/PD-L1 cells (DiscoveRx Corporation) were maintained in McCoy's 5A medium with addition of 10% FBS, 0.25 μg/mL Puromycin. After removing the culture media, the cell medium was replaced with assay medium (RPMI1640 medium with 1% FBS). The U2OS/PD-L1 cells were then added in 384-well black clear bottom assay plate (CELLCOAT® Tissue Culture Plates, Greiner Bio-One) at 5000 cells per well in 20 μL assay medium. Test compounds were prepared by serial dilution in DMSO and 125 nL compound were first transferred to the 384 REMP plate well (Thermofisher) by ECHO liquid handler (Labcyte) followed with addition of 27.5 μL assay medium. 5 µL/well compounds in the assay medium were transferred to the cell plate with 0.05% DMSO in the final assay at 0.25 μM. Jurkat-PD-1-SHP cells (DiscoveRx Corporation) were cultured in RPMI1640 medium supplemented with 10% FBS, 250 μg/mL Hygromycin B, 500 μg/mL G418. After the replacement of culture media with assay medium, 5,000 Jurkat-PD-1-SHP cells in 20 μL were dispensed into each well. The assay plate was incubated at 37° C., 5% CO2 for 2 hours before 2.5 μL PathHunter reagent 1 (DiscoveRx Corporation) were added to each well. The assay plate was shaken for 1 min at 350 rpm in the dark followed with addition of 10 μL PathHunter reagent 2 (DiscoveRx Corporation). Chemiluminescent signal was recorded with TopCount reader (Perkin Elmer) after incubation at room temperature for 1 hour. Wells with DMSO were served as the positive controls and wells containing no cells were used as negative controls. IC50 determination was performed by fitting the curve of percentage of control activity versus the log of the compound concentration using the GraphPad Prism 6.0 software.

PD-1/PD-L1 = PD-1/PD-L1 (Homo sapiens (Human), UniProt Q9NZQ7); assay: Homogeneous Time-Resolved Fluorescence (HTRF) PD-1/PD-L1 binding assay; conditions: recombinant human PD-1 and PD-L1
Protocol: The assays were conducted in a standard black 384-well polystyrene plate with a final volume of 20 μL. Inhibitors were first serially diluted in DMSO and then added to the plate wells before the addition of other reaction components. The final concentration of DMSO in the assay was 1%. The assays were carried out at 25° C. in the PBS buffer (pH 7.4) with 0.05% Tween-20 and 0.1% BSA. Recombinant human PD-L1 protein (19-238) with a His-tag at the C-terminus was purchased from AcroBiosystems (PD1-H5229). Recombinant human PD-1 protein (25-167) with Fc tag at the C-terminus was also purchased from AcroBiosystems (PD1-H5257). PD-L1 and PD-1 proteins were diluted in the assay buffer and 10 μL was added to the plate well. Plates were centrifuged and proteins were preincubated with inhibitors for 40 minutes. The incubation was followed by the addition of 10 μL of HTRF detection buffer supplemented with Europium cryptate-labeled anti-human IgG (PerkinElmer-AD0212) specific for Fc and anti-His antibody conjugated to SureLight®-Allophycocyanin (APC, PerkinElmer-AD0059H). After centrifugation, the plate was incubated at 25° C. for 60 min. before reading on a PHERAstar FS plate reader (665 nm/620 nm ratio). Final concentrations in the assay were—3 nM PD1, 10 nM PD-L1, 1 nM europium anti-human IgG and 20 nM anti-His-Allophycocyanin. IC50 determination was performed by fitting the curve of percent control activity versus the log of the inhibitor concentration using the GraphPad Prism 5.0 software.

[2] = system: PD-L1 aAPC/CHO-K1 cells and Jurkat-PD-1-NFAT effector cells; assay: Nuclear factor of activated T-cells (NFAT) assay; format: cell-based; conditions: Cricetulus griseus, CHO-K1; luminescence, 24 hours
Protocol: PD-L1 aAPC/CHO-Klcells (Promega) were maintained in F-12 medium with addition of 10% FBS, 200 μg/mL Hygromycin B, 250 μg/mL Geneticin (G418). Jurkat-PD-1-NFAT effector cells (Promega) were cultured in RPMI 1640 medium supplemented with 10% FBS, 100 μg/mL Hygromycin B, 500 μg/mL G418. The culture media of PD-L1 aAPC/CHO-K1 cells were first replaced with assay medium (RPMI1640 medium with 1% FBS). The PD-L1 aAPC/CHO-Klcells were then added in a white 384-well white clear bottom assay plate (CELLCOAT® Tissue Culture Plates, Greiner Bio-One) at 8000 per well in 10 μL assay medium. Test compounds were prepared by serial dilution in DMSO and 0.8 μL test compounds in DMSO were first transferred to the 384 REMP plate well (Thermofisher) by PlateMate Plus (Thermofisher) followed with addition of 50 μL plating medium. 5 μL compounds in the assay medium were transferred to the cells with 0.4% DMSO in the final assay at 2 μM. After removing the culture media, 10,000 Jurkat-PD-1-NFAT effector cells in 5 μL assay medium was dispensed into each well. The assay plate was incubated at 37° C., 5% CO2 for 24 hours. After the assay plate was equilibrated to room temp for 15 minutes, 20 μL/well of Bio-Glo™ reagent (Promega) were added. After 8 minutes incubation at room temperature, luminescence was read at with Pherastar microplate reader (BMG Labtech). The fold of induction (FOI) was calculated based on the ratio of luminescence normalized to the DMSO wells within each assay plate. The maximum percentage of induction was reported based on the ratio between the highest FOI of each compound and the maximum FOI of control compound within each assay plate. Wells with DMSO were served as the negative controls and wells containing control compound with the highest FOI were used as positive controls. EC50 determination was performed by fitting the curve of percent control activity versus the log of the compound concentration using the GraphPad Prism 6.0 software.

PD-L1 = PD-L1 (Homo sapiens (Human), UniProt Q9NZQ7); assay: PD-L1 whole blood internalization assay; format: cell-based; conditions: PD-L1 internalization in human whole blood, CD14+ cells, interferon γ, 24 hour
Protocol: To determine PD-L1 internalization in human whole blood, normal human blood (Biological Specialty Corp, Colmar. Pa.) was incubated in the presence or absence of a concentration range of test compounds and 1 ng/mL human interferon γ (R&D Systems Inc. Minn. […] Blood was then stained with PD-L1 (MIH1, eBioscience; or BD Biosciences San Jose, Calif.), CD14 (Life Technologies, Carlsbad, Calif.) for 30 minutes in the dark at room temperature. Whole Blood/red cells were lysed/fixed (lysis buffer BD Biosciences) for 5 minutes at 37° C. in the dark and then centrifuged at 1600 RPM for 5 minutes. Cells were resuspended in Stain Buffer (BD Bioscience, San Jose, Calif.) and transferred into 96 well round bottom plates (Corning). Cells were gated on CD14+(BD Biosciences) and PD-L1 expression determined by mean fluorescence intensity (MFI) (BD LSRFortessa™ X-20). IC50 determination was performed by fitting the curve of compound percent inhibition versus the log of the compound concentration using the GraphPad Prism 7.0 software.

[3] = In vivo pharmacokinetics in rats; set-up: species or system Sprague Dawley rats; conditions: rat, cassette dosing
Protocol: For in vivo pharmacokinetic experiments, test compounds were administered to male Sprague Dawley rats or male and female Cynomolgus monkeys intravenously or via oral gavage. For intravenous (IV) dosing, test compounds were dosed at 0.5 to 1 mg/kg using a formulation of 10% dimethylacetamide (DMAC) in acidified saline via IV bolus for rat and 5 min or 10 min IV infusion for monkey. For oral (PO) dosing, test compounds were dosed at 1.0 to 3.0 mg/kg using 5% DMAC in 0.5% methylcellulose in citrate buffer (pH 3.5). Blood samples were collected at predose and various time points up to 24 hours postdose. All blood samples were collected using EDTA as the anticoagulant and centrifuged to obtain plasma samples. The plasma concentrations of test compounds were determined by LC-MS methods. The measured plasma concentrations were used to calculate PK parameters by standard noncompartmental methods using Phoenix® WinNonlin software program (version 7.0, Pharsight Corporation).
In rats and monkeys, cassette dosing of test compounds were conducted to obtain preliminary PK parameters.

[4] = male, Sprague-Dawley, plasma, 1.0 mg/kg IV

PD-1/PD-L1, sequence (Q9NZQ7 19-238): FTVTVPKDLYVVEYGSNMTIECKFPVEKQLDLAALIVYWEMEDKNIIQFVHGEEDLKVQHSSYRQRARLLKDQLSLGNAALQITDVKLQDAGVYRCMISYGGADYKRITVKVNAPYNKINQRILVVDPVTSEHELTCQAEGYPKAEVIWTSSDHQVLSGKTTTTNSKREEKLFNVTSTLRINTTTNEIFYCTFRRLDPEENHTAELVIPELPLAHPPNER
PD-L1, sequence (Q9NZQ7 19-290): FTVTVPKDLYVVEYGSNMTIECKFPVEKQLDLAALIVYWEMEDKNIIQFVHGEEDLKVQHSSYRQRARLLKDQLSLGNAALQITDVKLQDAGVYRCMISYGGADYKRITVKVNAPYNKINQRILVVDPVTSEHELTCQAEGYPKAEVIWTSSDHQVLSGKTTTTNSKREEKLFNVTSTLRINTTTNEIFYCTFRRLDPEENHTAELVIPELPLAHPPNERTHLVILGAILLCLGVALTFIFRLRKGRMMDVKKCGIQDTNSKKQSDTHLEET

Structure (SMILES)	IC50 [1]	IC50 (PD-1/PD-L1)	EC50 [2]	IC50 (PD-L1)	clearance [3, 4]	half-life [3, 4]	Vd ([3]; male, Sprague-Dawley, plasma, 1.0 mg/kg IV, read-out: Vss)	Cmax ([3]; male, Sprague-Dawley, plasma, 3.0 mg/kg PO)	AUC(0-inf) ([3]; male, Sprague-Dawley, plasma, 3.0 mg/kg PO, read-out: AUC0-inf)	F ([3]; 3.0 mg/kg PO)
Cn1c(C(=O)Nc2cccc(-c3cccc(NC(=O)c4nc5c(n4C)CCN(C4CCOCC4)C5)c3Cl)c2Cl)nc2c1CCN(CC13CCC(C(=O)O)(CC1)C3)C2 [Example 179, reference compound]	61 nM	18 nM	709 nM	–	–	–	–	–	–	–
Cc1c(Nc2nc(C(F)F)nc3cc(CN4CC(C)(O)C4)cnc23)cccc1-c1cccc(NC(=O)c2nc3c(n2C)CCN(CCC24CCC(C(=O)O)(CC2)C4)C3)c1Cl [Example 14, 4-(2-(2-((2-chloro-3′-((2-(difluoromethyl)-7-((3-hydroxy-3-methylazetidin-1-yl)methyl)pyrido[3,2-d]pyrimidin-4-yl)amino)-2′-methyl-[1,1′-biphenyl]-3-yl)carbamoyl)-1-methyl-1,4,6,7-tetrahydro-5H-imidazo[4,5-c]pyridin-5-yl)ethyl)bicyclo[2.2.1]heptane-1-carboxylic Acid]	3 nM	1.7 nM	3 nM	20 nM	–	–	–	–	–	–
Cn1c(C(=O)Nc2cccc(-c3cccc(NC(=O)c4nc5c(n4C)CCN(C4CCC4)C5)c3Cl)c2Cl)nc2c1CCN(CC13CCC(C(=O)O)(CC1)C3)C2 [Example 178, reference compound]	13 nM	1.9 nM	82 nM	587 nM	–	–	–	–	–	–
Cc1c(Nc2nc(C(F)F)nc3cc(CN4CC[C@H](O)C4)cnc23)cccc1-c1cccc(NC(=O)c2nc3c(n2C)CCN(CCC24CCC(C(=O)O)(CC2)C4)C3)c1Cl [Example 3, (S)-4-(2-(2-((2-chloro-3′-((2-(difluoromethyl)-7-((3-hydroxypyrrolidin-1-yl)methyl)pyrido[3,2-d]pyrimidin-4-yl)amino)-2′-methyl-[1,1′-biphenyl]-3-yl)carbamoyl)-1-methyl-1,4,6,7-tetrahydro-5H-imidazo[4,5-c]pyridin-5-yl)ethyl)bicyclo[2.2.1]heptane-1-carboxylic Acid]	2.5 nM	1.5 nM	4 nM	18 nM	–	–	–	–	–	–
Cc1c(Nc2nc(C(F)F)nc3cc(CN4C[C@H](O)C[C@@H]4C)cnc23)cccc1-c1cccc(NC(=O)c2nc3c(n2C)CCN(CCC24CCC(C(=O)O)(CC2)C4)C3)c1Cl [Example 10, 4-(2-(2-((2-chloro-3′-((2-(difluoromethyl)-7-(((2S,4R)-4-hydroxy-2-methylpyrrolidin-1-yl)methyl)pyrido[3,2-d]pyrimidin-4-yl)amino)-2′-methyl-[1,1′-biphenyl]-3-yl)carbamoyl)-1-methyl-1,4,6,7-tetrahydro-5H-imidazo[4,5-c]pyridin-5-yl)ethyl)bicyclo[2.2.1]heptane-1-carboxylic Acid]	4 nM	1.5 nM	4 nM	35 nM	–	–	–	–	–	–
Cc1c(Nc2nc(C(F)F)nc3cc(CN4CC[C@](C)(O)C4)cnc23)cccc1-c1cccc(NC(=O)c2nc3c(n2C)CCN(CCC24CCC(C(=O)O)(CC2)C4)C3)c1Cl [Example 4, (S)-4-(2-(2-((2-chloro-3′-((2-(difluoromethyl)-7-((3-hydroxy-3-methylpyrrolidin-1-yl)methyl)pyrido[3,2-d]pyrimidin-4-yl)amino)-2′-methyl-[1,1′-biphenyl]-3-yl)carbamoyl)-1-methyl-1,4,6,7-tetrahydro-5H-imidazo[4,5-c]pyridin-5-yl)ethyl)bicyclo[2.2.1]heptane-1-carboxylic Acid]	3.5 nM	1.9 nM	4 nM	17 nM	–	–	–	–	–	–
CCN1CCc2c(nc(C(=O)Nc3cccc(-c4cccc(NC(=O)c5nc6c(n5C)CCN(CC57CCC(C(=O)O)(CC5)C7)C6)c4Cl)c3Cl)n2C)C1 [Example 176, reference compound]	17 nM	2.9 nM	122 nM	732 nM	–	–	–	–	–	–
Cc1c(NC(=O)c2nc3c(n2C)CCN(CCC24CCC(C(=O)O)(CC2)C4)C3)cccc1-c1cccc(Nc2nc(C(F)F)nc3cc(CN4CC[C@@](C)(O)C4)cnc23)c1C [Example 6, (R)-4-(2-(2-((3′-((2-(difluoromethyl)-7-((3-hydroxy-3-methylpyrrolidin-1-yl)methyl)pyrido[3,2-d]pyrimidin-4-yl)amino)-2,2′-dimethyl-[1,1′-biphenyl]-3-yl)carbamoyl)-1-methyl-1,4,6,7-tetrahydro-5H-imidazo[4,5-c]pyridin-5-yl)ethyl)bicyclo[2.2.1]heptane-1-carboxylic Acid]	2.2 nM	–	8.2 nM	31 nM	12.7 mL/min/kg	4.5 h	2.99 L/kg	182 nM	1.43 µM·h	30%
